PubChem BioAssay (NCI)
Values joined by “and” are separate entries in the source; they are usually repeats but may differ in a detail not shown here. Identical values can stand only once.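 96-well plates; 48 h exposure; 5 concentrations. Endpoints by linear interpolation between flanking doses. Not reached: highest tested concentration assigned. Here, GI50 denotes the concentration required for 50% inhibition of growth. TGI: total growth inhibition.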

Legend:
Experiment in all cases: NCI tumour cell line growth inhibition, 48 h
MOLT-4 leukemia = system: MOLT-4 leukemia
EKVX NSCLC = system: EKVX NSCLC
MDA-MB-231 breast = system: MDA-MB-231 breast
SW-620 colon = system: SW-620 colon
NCI-H460 lung = system: NCI-H460 lung
M14 melanoma = system: M14 melanoma
OVCAR-3 ovarian = system: OVCAR-3 ovarian
T-47D breast = system: T-47D breast
SK-MEL-28 melanoma = system: SK-MEL-28 melanoma
UACC-257 melanoma = system: UACC-257 melanoma

SMILES	GI50 (MOLT-4 leukemia)	TGI (MOLT-4 leukemia)	GI50 (EKVX NSCLC)	TGI (EKVX NSCLC)	GI50 (MDA-MB-231 breast)	TGI (MDA-MB-231 breast)	GI50 (SW-620 colon)	TGI (SW-620 colon)	GI50 (NCI-H460 lung)	TGI (NCI-H460 lung)	GI50 (M14 melanoma)	TGI (M14 melanoma)	GI50 (OVCAR-3 ovarian)	TGI (OVCAR-3 ovarian)	GI50 (T-47D breast)	TGI (T-47D breast)	GI50 (SK-MEL-28 melanoma)	TGI (SK-MEL-28 melanoma)	GI50 (UACC-257 melanoma)	TGI (UACC-257 melanoma)
Oc1ccc(O)c2c1C1(Cl)C(Cl)=C(Cl)C2(Cl)C1(Cl)Cl	2.87 µM	19 µM	1470 nM	7.45 µM	4.65 µM	23 µM	4.89 µM	16.7 µM	2860 nM	8.94 µM	3.03 µM	12 µM	2030 nM	5.17 µM	5.19 µM	24.3 µM	10900 nM	81 µM	3.97 µM	17.4 µM
COc1cc(NC(=O)c2cc(O)c(C/C=C(\C)CCC=C(C)C)c(O)c2)cc2c1O[C@]1(C)CC[C@@H](O)C(C)(C)[C@H]1C2	0.409 µM	5.83 µM	2250 nM	11.4 µM	1.11 µM	5.04 µM	2.62 µM	13.1 µM	1970 nM	11.2 µM	1.48 µM	4.09 µM	1880 nM	5.49 µM	1.63 µM	6.95 µM	1430 nM	8.25 µM	2.82 µM	14.3 µM
Nc1nc(Cl)nc2c1ncn2[C@@H]1O[C@H](COS(N)(=O)=O)[C@@H](O)[C@H]1O	0.0109 µM	0.391 µM and 0.0457 µM	23.2 nM and 30.1 nM	0.0688 µM and 0.167 µM	0.00481 µM	0.0294 µM and 0.0262 µM	0.0256 µM and 0.0312 µM		30.6 nM and 30.5 nM	0.104 µM and 0.108 µM	0.0186 µM and 0.0192 µM	0.0421 µM and 0.0375 µM	28.2 nM	0.0864 µM and 0.0714 µM	0.0156 µM and 0.02 µM	0.0656 µM and 0.0744 µM	20.1 nM and 20.8 nM	0.05 µM and 0.0511 µM	0.0233 µM and 0.0242 µM	0.0694 µM and 0.0685 µM
O=C1NC(c2ccccc2)N=C2Oc3ccccc3C=C12 (configuration not stated)		> 100 µM		> 100 µM		> 31.6 µM		> 100 µM		> 43.7 µM		> 31.6 µM		> 100 µM		> 100 µM		> 100 µM		> 100 µM
O=C1OC(OC/C(Br)=C(/Br)COC2OC(=O)C(Cl)=C2Cl)C(Cl)=C1Cl (configuration not stated)		5.44 µM		32.2 µM		17 µM		8.26 µM		39.4 µM		17.3 µM		14.6 µM		30.8 µM		23.3 µM		25.5 µM
c1ccc2c(CN3CCC(C4CCN(Cc5cccc6ccccc56)CC4)CC3)cccc2c1		26.6 µM and 99.1 µM	35100 nM and > 91400 nM	> 100 µM		> 74.1 µM	3.02 µM and 11.4 µM	9.17 µM and 40.1 µM		52.4 µM and 46.8 µM		3.59 µM and 3.89 µM		> 100 µM		89.1 µM	1480 nM and 3100 nM	2.85 µM and 8.19 µM		4.25 µM and 11.9 µM
Cc1ccccc1NC(=O)c1cc2ccccc2cc1O	3.98 µM	> 100 µM	2360 nM	91.8 µM	3.17 µM	15.2 µM	3.96 µM	> 100 µM	2770 nM	7.29 µM	4.08 µM	> 100 µM	2560 nM	7.77 µM	3.51 µM	> 100 µM	5090 nM	> 100 µM	3.52 µM	16.2 µM
O=C1NC(SCc2ccc(F)cc2)=N/C1=C/c1cccc(OCc2ccc(Cl)cc2)c1	31.6 µM	> 100 µM	8860 nM	> 100 µM	24.6 µM	> 100 µM	20 µM	> 100 µM	4390 nM	30.3 µM	47.4 µM	> 100 µM	5080 nM	31.5 µM	13.9 µM	> 100 µM	> 100000 nM	> 100 µM	> 100 µM	> 100 µM
c1ccc(/C(=N\Nc2ccc3ccccc3n2)c2ccccn2)cc1	0.252 µM	0.69 µM	281 nM	8.39 µM	0.839 µM	43.4 µM	0.699 µM	15.3 µM	414 nM	11.3 µM	0.484 µM	4.44 µM	291 nM	2.49 µM	0.315 µM	26 µM	2660 nM	39 µM	0.33 µM	3.48 µM
Cn1c2ccccc2c2[nH]c3ccccc3c(=O)c21		> 100 µM		> 100 µM		> 100 µM		> 100 µM		> 100 µM		> 100 µM		> 100 µM		> 100 µM		> 100 µM		> 100 µM
CC(C)=CCc1cc(C2COc3cc4c(c(O)c3C2=O)C=CC(C)(C)O4)c(O)cc1O (configuration not stated)		20.7 µM		27.5 µM		27.5 µM		57.3 µM		27.4 µM		26.2 µM		27.3 µM		27.2 µM		50.4 µM		27.4 µM
Nc1cc(-c2ccccc2)n(C(=O)Nc2ccc(Oc3ccccc3)cc2)n1	50.5 µM	> 100 µM	> 100000 nM	> 100 µM	27.3 µM	> 100 µM	> 100 µM	> 100 µM	69000 nM	> 100 µM	> 100 µM	> 100 µM	31300 nM	> 100 µM	86.2 µM	> 100 µM	1620 nM	39.2 µM	84.5 µM	> 100 µM
O=C(Cn1c2ccccc2c2ccncc21)N/N=C\c1ccc2ccccc2c1	16.7 µM	> 100 µM	24800 nM	> 100 µM	14.5 µM	32.9 µM	12.7 µM	> 100 µM	13900 nM	39.9 µM	16.5 µM	50.2 µM	12200 nM	36.5 µM	25.2 µM	> 100 µM	19200 nM	79.7 µM	42.1 µM	> 100 µM
CC1=NN(c2ccccc2)C(=O)C1N=Nc1ccc(S(N)(=O)=O)cc1 (configuration not stated)		> 100 µM		> 100 µM		> 100 µM		> 100 µM		> 100 µM		> 100 µM		> 100 µM		> 100 µM		> 100 µM		> 100 µM
